Source: US10940475B2, “Gradient-on-a-chip” (Purdue Research Foundation, priority 2017, dated 2021)
Like-named read-outs stand apart in the source and are kept apart here.

Columns and labels:
S2 cells [1] = settings: for cells with γ-H2Ax staining: low ROS concentration tier, gradient from 250 μM H2O2, four hours
Protocol: Human mammary epithelial non-neoplastic S1 cells^17 [used between passages 52 to 60], preinvasive S2 cells^18 [used between passages 218+2 and 218+10] and invasive T4-2 cells^19 [used between passages 28+4 and 28+10] that belong to the HMT-3522 breast cancer progression series, were cultured in H-14 medium, i.e., Dulbecco modified Eagle medium (DMEM) (Invitrogen Inc., Carlsbad, Calif.) supplemented with additives, prolactin (30.3 IU/ml; Sigma-Aldrich, St Louis, Mo.), insulin (100 μg/ml; Sigma-Aldrich), hydrocortisone (0.5 mg/ml; BD Biosciences, San Jose, Calif.), beta-estradiol (2.67×10^−5 μg/ml; Sigma-Aldrich), selenium (2.6 μg/ml; BD Biosciences) and transferrin (20 mg/ml; Sigma-Aldrich)^20. The culture medium also included epithelial growth factor (EGF) (20 mg/ml; BD Biosciences) until day 6 of culture, after which EGF was omitted from the culture medium to ensure proliferation arrest in 3D culture. Cell culture was performed at 37° C. in a humidified environment with 5% carbon dioxide and the culture medium was changed every three days for the S1 cells and every two days for S2 and T4-2 cells. Seeding densities in 2D culture were 22600 cells/cm^2 for S1 cells and 11900 cells/cm^2 for S2 and T4-2 cells. In 3D culture seeding densities were 86300 cells/cm^2 for S1 cells in the presence of Engelbreth-Holm-S warm (EHS) mouse derived Matrigel (Corning Life Sciences, Tewksbury, Ma.) or within collagen-1 rich Collymer matrix (GeniPhys™, Zionsville, Ind.) and 43150 cells/cm^2 for S2 and T4-2 cells. […] Briefly, 42 μl of Matrigel per cm^2 was used for the drip method with cells in 150 μl of medium, dripped on the gel-coated surface, before adding another 150 μl of medium with 10% EHS gel drop-by-drop all over the culture surface five minutes later (in the end seeding involved 3.47×10^4S1 cells/cm^2 per 55 μl of Matrigel; 1.74×10^4S2 or T4-2 cells/cm^2 per 55 μl of Matrigel). Collymers were prepared at different degrees of stiffness based on the formula provided by the manufacturer. S1 cells were cultured in 800 Pa Collymers stiffness, S2 cells were cultured in 800 Pa and 1500 Pa Collymers stiffness and T4-2 cells were cultured in 1500 Collymers stiffness. For the S2 cells, since they are preinvasive and nodules are surrounded by a basement membrane, basement membrane formation inducer laminin 111 (Corning) was mixed at 76 μg/ml final concentration with Collymers. For the Collymers thin-embedded culture, the surface was coated with 14 μl/cm^2 of Collymers of the desired stiffness. Collymers become opaque when they form a gel by incubation five minutes at 37° C. Cells were mixed with Collymers at the following concentrations per surface of culture and Collymers volume units: 4500 cells/cm^2/μl for S1 cells and 2262 cells/cm^2/μl for S2 and T4-2 cells. Following centrifugation at 2950 g for five minutes, the cells needed for each culture surface were put in solution in 5 μl of H-14 medium. Then, the cell suspension was mixed with Collymers (55 μl/cm^2 of culture surface) by gentle pipetting before coating on the cell culture surface, drop-by-drop all over the surface, and spreading with the pipette tip to ensure even distribution over the culture surface. After incubation five minutes at 37° C., 500 μl medium was added on top of the Collymers-embedded cells.
Antibodies used included Anti-rabbit Caspase-3 (Cell Signaling Technologies, Boston, Mass. 1/400 dilution), AOP2 (Abcam, Cambridge, Mass.; 2 μg/ml) and γ-H2AX (Ser139; Millipore, clone JBW301, 3.3 μg/ml). […]

S2 cells [2] = settings: four hours
Protocol: (§1) A NE-4000X dual syringe pump (New era pump systems Inc., Farmingdale, N.Y.) was exposed to UV overnight before the day of experiments. The flow rate was adjusted to 0.1 ml/h, and using a 60 ml syringe a continuous inflow of medium and H2O2 (250 μM) through the inlets was maintained. The second pump was connected to the outlet to remove the medium at 0.2 ml/h to avoid overflow of liquids in the cell culture aperture of the device. The flow rate for the outlet pump was twice that of the incoming flow rate to accommodate for the use of two inlets. The paper strip with cells in 2D or 3D culture was placed in the cell culture slot of the device and exposed to the ROS gradient for four hours.
Nuclear circularity and nuclear area were measured using the ImageJ software by outlining the nuclear shape based on DAPI staining. The most circular nuclei are given a score of 1 (perfectly round nucleus). Nuclear area was measured in pixels and converted to μm^2 based on the spatial calibration table of ImageJ.

S2 cells [3] = settings: four hours; remark: listed apart in the source
Protocol: as §1

Compound: OO [ROS, hydrogen peroxide]
- γ-H2AX response level of the cell population (S2 cells [1]; high concentration tier, all culture conditions, four hours): around 40%
- cells with γ-H2Ax staining (S2 cells [1]; 800 Pa Collymers): 20%
- cells with γ-H2Ax staining (S2 cells [1]; 1500 Pa Collymers culture): less than 5%
- cells with γ-H2Ax staining (S2 cells [1]; Matrigel culture): less than 5%
- cells with γ-H2Ax staining (S2 cells [1]; cells cultured on paper (2D)): 20%
- nuclear area (S2 cells [2]; ROS exposure regardless of the cell culture condition): increased
- nuclear circularity (S2 cells [2]; with increasing ROS concentration tiers, all culture conditions): decreased
- oxidative DNA damage based on 8-OHdG expression (S2 cells [3]; low ROS concentration tier, 2D and 3D Matrigel culture): did no show oxidative DNA damage
- 8-OHdG levels (S2 cells [3]; medium and high ROS concentration tiers, 2D cell culture and 3D Matrigel cell culture): significant, but similar increase
- AOP2 response (nodules stained for AOP2) (S2 cells [3]; regardless of the ROS levels): ~100%
